Data: US20260345595A1, “NOVEL FLUORENE DERIVATIVE COMPOUND AND USE THEREOF” (JD BIOSCIENCE INC., priority 2022, published 2026)

Assays:
[1] = tested on: DSS-induced colitis in C57BL6J JmcSlc mice; test: DSS colitis, inflammatory bowel disease animal model; type: in vivo, mouse; conditions: for colonic epithelial cell recovery (H&E): FIG. 6A
Description: Colitis was induced in 8-week-old male C57BL6J JmcSlc mice by feeding 3.5% dextran sodium sulfate (DSS) ad libitum for 9 days, and then replacing the same with normal drinking water. The vehicle and Compound 1 (0.5 mg/kg or 1 mg/kg) were orally administered to the experimental animal model prepared as described above daily from 2 days before DSS drinking until the end of drinking. In order to determine the degree of colonic inflammation, the degree of longitudinal contraction of the isolated colon was measured, and the histological scores were confirmed through H&E staining, which is shown in FIG. 6. Furthermore, total RNA was isolated from the isolated colon, cDNA was synthesized, and the expression levels of representative cytokines (IFNγ, IL-1β, IL-4, IL-6, IL-10, IL-12β, IL-17α, and TNFα) were measured and compared using qPCR, and the results are shown in FIG. 7.

cancer cells = test: Growth inhibition of cancer cells, Cell Counting Kit-8; type: cell-based; conditions: 24 hours, 0.5% FBS; FIGS. 16 to 20
Description: In order to verify the growth inhibitory effect of Compound 1 on various normal and cancer cell lines, 25 types of cell lines listed in Table 7 below were tested. In detail, each cell was seeded at a density of 2×10^4 cells/well in a 96-well plate and cultured for 24 hours, and then the medium was replaced with a medium comprising 0.5% (for cancer cells) or 10% (for normal cells) FBS, and Compound 1 was treated at various concentrations. 24 hours later, 10 μL of Cell Counting Kit-8 (Dojindo Molecular Technologies) was added, and 1 hour later, absorbance at 480 nm was measured using a microplate reader (TECAN SPARK), and the results are shown in FIGS. 15 to 21.

[2] = tested on: LPS-induced sepsis in C57BL6J mice; test: LPS-induced sepsis animal model, viability; type: in vivo, mouse; conditions: for Viability: 15 mg/kg i.p. before 50 mg/kg LPS
Description: 50 mg/kg of lipopolysaccharide (LPS) administration dose corresponds to the ‘half lethal dose’ that causes death of one half of the population within 24 hours. […] The animal experiment was conducted with six 8-week-old male C57BL6J mice per group. Each mouse was intraperitoneally administered 15 mg/kg of Compound 1 or pretreated with 100 μL of 10% DMSO (vehicle control). 30 minutes later, 50 mg/kg lipopolysaccharide was intraperitoneally injected into each mouse, and the viability was examined for 80 hours, and the results are shown in FIG. 9 and Table 2.

[3] = tested on: GvHD in vivo model in BALB/c mice; test: Graft-versus-host disease (GvHD) animal model; design: species or system mouse; conditions: for production of CD4+IFNg+T cells, mean value: spleen, day 14
Description: 5-week-old BALB/c male mice were acclimatized for 1 week and irradiated with 800 cGy of total body irradiation. Then, 5×10^6 bone marrow cells derived from C57BL/6J and 1×10^7 spleen cells were intravenously injected to establish a GvHD in vivo model (positive control). A syngeneic control group was established in the same manner as above, but BALB/c-derived bone marrow cells were selected as the injected bone marrow cells. Compound 1 Daily was established by daily oral gavage of 1 mg/kg of Compound 1 to the GvHD in vivo model. Compound 1 Initial only was established by orally administering 1 mg/kg of Compound 1 to the GvHD in vivo model only for 6 days after model induction. The therapeutic effect of Compound 1 was verified by measuring the change in body weight every 3 days for each control and experimental group established as above, and the results are shown in FIG. 11 and Table 4. On day 14, the production of CD4^+IFNg^+T cells, which is a major factor inducing GvHD, was measured in the spleens isolated from the mice, and the results are shown in FIG. 12 and Table 5.

[4] = tested on: bone marrow-derived dendritic cells (BMDCs); test: IL-1β release (inflammasome formation) in LPS/ATP-stimulated bone marrow-derived dendritic cells, ELISA; type: cell-based, C57BL6 mice; conditions: versus vehicle control
Description: Furthermore, to verify the anti-inflammatory effect at a cellular level, bone marrow cells of C57BL6 mice were treated with 20 ng/ml of GM-CSF and IL-4, and 6 days later, bone marrow-derived dendritic cells (BMDCs) were collected. The BMDCs were prepared at 1×10^6 cells/mL and stabilized for one day, and then subsequent experiments were conducted. The above dendritic cells were treated with 500 ng/ml of LPS for 3 hours to prime pro-IL1B, and then treated with Compound 1 (0 μM, 0.01 µM, 0.1 μM, 1 μM, and 10 μM) for 15 minutes. Next, 5 mM of ATP was treated, which induces inflammasome formation by converting pro-IL1B to IL-1B through pro-IL1B cleavage, and 30 minutes later, the concentration of IL-1B in the supernatant was measured by ELISA, and the results are shown in FIG. 10 and Table 3.

[5] = colon tissue, qPCR, versus vehicle, FIG. 7

`CC(C(=O)NNc1ccc(F)cc1)n1cc(-c2cc(F)cc3c2-c2ccccc2C3(O)C(F)(F)F)cn1` (centres unmarked) [Compound 1, 2-(4-(2-fluoro-9-hydroxy-9-(trifluoromethyl)-9H-fluoren-4-yl)-1H-pyrazol-1-yl)-N′-(4-fluorophenyl)propanehydrazide] was tested, and the “longitudinal contraction of colon” value ([1]; 0.5 mg/kg and 1 mg/kg, oral daily, versus vehicle, FIGS. 6C and 6D) was “the contraction was alleviated both in the group administered 0.5 mg/kg of Compound 1 and in the group administered 1 mg/kg of Compound 1, as compared to the vehicle administration group, and the effect increased as the administration amount increased”, the “colonic epithelial cell recovery (H&E)” value ([1]; 0.5 mg/kg, oral daily) was “the recovery was slight” and the “colonic epithelial cell recovery (H&E)” value ([1]; 1 mg/kg, oral daily) was “remarkable epithelial cell recovery”. For the same compound, the “tissue (histological) score” value ([1]; 1 mg/kg, oral daily, FIG. 6B) was “the lowest score”, the “IFNγ mRNA expression” value [1, 5] was “significantly reduced” and the “IL-4 mRNA expression” value [1, 5] was “increased”. The “IL-6 mRNA expression” value [1, 5] was “significantly reduced”, the “IL-12b mRNA expression” value [1, 5] was “significantly reduced” and the “IL-17a mRNA expression” value [1, 5] was “significantly reduced”. The “TNFα mRNA expression” value [1, 5] was “significantly reduced”, the “viability of cancer cells (in words)” value (cancer cells) was “decreased the viability of cancer cells in a concentration-dependent manner” and the Viability ([2]; 0 h) was 100%. The Viability ([2]; 20 h) was 100%, the Viability ([2]; 24 h) was 83.3% and the Viability ([2]; 28 h) was 83.3%. For the same compound, the Viability ([2]; 32 h) was 83.3%, the Viability ([2]; 36 h) was 66.7% and the Viability ([2]; 40 h) was 66.7%. It also gave a Viability ([2]; 44 h) of 66.7%, a Viability ([2]; 48 h) of 66.7% and a Viability ([2]; 50 h) of 66.7%. The Viability ([2]; 60 h) was 50%, the Viability ([2]; 70 h) was 50% and the Viability ([2]; 80 h) was 50%. The “viability in sepsis-induced animal model (in words)” value ([2]; 15 mg/kg i.p., p<0.01 versus LPS+vehicle, FIG. 9) was “had the effect of improving the viability”, the “body weight recovery (in words)” value ([3]; Daily and Initial only, 1 mg/kg oral, versus control, FIG. 11) was “significantly recovered” and the “production of allogeneic CD4+IFNg+T cells (in words)” value ([3]; Daily and Initial only, 1 mg/kg oral, versus control, FIG. 12) was “significantly reduced”. The “production of CD4+IFNg+T cells, mean value” ([3]; Daily, 1 mg/kg oral gavage) was 10.28, the “production of CD4+IFNg+T cells, mean value” ([3]; Initial only (6 days), 1 mg/kg oral) was 13.04 and the inhibition at 0.1 µM ([4]; Mus musculus, BMDC, 0.1 µM, read-out: inhibition of IL-1β expression) was ~83.8%. For the same compound, the inhibition at 10 µM ([4]; Mus musculus, BMDC, 10 µM, read-out: inhibition of IL-1β expression) was ~53.8% and the “inhibition of IL-1β expression (in words)” value ([4]; FIG. 10) was “significantly inhibited”.
